Reference: paper PMC9380671, “Development of spiro-3-indolin-2-one containing compounds of antiproliferative and anti-SARS-CoV-2 properties” (Scientific Reports, 2022)
Where two headings read alike, the source gives them in different places.

Tests used:
AChE = AChE (Homo sapiens, UniProt P22303); experiment: AChE inhibition (DTNB, acetylthiocholine); format: biochemical; conditions: for IC50: read-out: AChE (IC50, μM) ± SD
Description: All compounds were dissolved in MeOH.

[1] = tested on: A431 (skin squamous) cancer cell line; experiment: MTT antiproliferation, A431; format: cell-based, human; conditions: for IC50: Homo sapiens; for SI (selectivity index) A431: IC50 of RPE1/IC50 of cancer cell line
Description: (§1) Antiproliferation properties of the targeted agents were investigated by the standard MTT technique against diverse human cancer cell lines [MCF7 (breast), HCT116 (colon), A431 (skin squamous) and PaCa2 (pancreatic)][67] (Table 1, Supplementary Figs. S48‒S51).
(§2) Cells were seeded at concentration of 30000 cells per well in fresh complete growth medium in 96-well tissue culture microtiter plates for 24 h. […] 0.5% DMSO was used as negative control. Triplicate wells were prepared for each individual dose. After 72 h of incubation, medium was aspirated, 40 μl MTT salt (2.5 mg ml^-1) was added to each well and incubated for further 4 h at 37 °C. To stop the reaction and dissolve the formed crystals, 150 μl of 10% sodium dodecyl sulfate (SDS) in deionized water was added to each well and incubated overnight at 37 °C.
(§3) Data were collected as mean values for experiments performed in triplicates for each individual dose which had been measured by MTT assay. […] The cell surviving fraction was calculated according to the following equation.
(§4) Surviving fraction = OpticaldensityO.D.oftreatedcellsO.D.ofcontrolcells
(§5) Statistical calculations for determination of the mean and standard error mean values were determined by SPSS 16 software.

[2] = tested on: PaCa2 (pancreatic) cancer cell line; experiment: MTT antiproliferation, PaCa-2; format: cell-based, human; conditions: for IC50: Homo sapiens, PaCa-2, 72 h, read-out: IC50 (µM) ± SEM PaCa-2; for SI (selectivity index) PaCa-2: IC50 of RPE1/IC50 of cancer cell line
Description: as §1
Cells were suspended in DMEM medium for MCF7, A431, PaCa-2 and McCoy’s 5A for HCT116 in addition to 1% antibiotic–antimycotic mixture (10000 μg ml^-1 potassium penicillin, 10000 μg ml^-1 streptomycin sulfate and 25 μg ml^-1 amphotericin B), 10% fetal bovine serum and 1% L-glutamine at 37 °C, under 5% CO2 and 95% humidity. Cells were seeded at concentration of 30000 cells per well in fresh complete growth medium in 96-well tissue culture microtiter plates for 24 h. Media was aspirated, fresh complete medium was added and cells were incubated with different concentrations of the tested compound to give a final concentration of [50, 25, 12.5 and 6.25 μM “in addition to 3.125, 1.56 and 0.78 μM in case of high potent analogues”). 0.5% DMSO was used as negative control. Triplicate wells were prepared for each individual dose. After 72 h of incubation, medium was aspirated, 40 μl MTT salt (2.5 mg ml^-1) was added to each well and incubated for further 4 h at 37 °C. To stop the reaction and dissolve the formed crystals, 150 μl of 10% sodium dodecyl sulfate (SDS) in deionized water was added to each well and incubated overnight at 37 °C. The absorbance was then measured at 570 nm and a reference wavelength of 595 nm.
as §3, §4
(§6) Statistical calculations for determination of the mean and standard error mean values were determined by SPSS 16 software. The observed anti-proliferative properties are presented in Table 1 (Supplementary Figs. S48‒S52).

[3] = tested on: MCF7 (breast) cancer cell line; experiment: MTT antiproliferation, MCF7; format: cell-based, human; conditions: for IC50: Homo sapiens, MCF7, 72 h, read-out: IC50 (µM) ± SEM MCF7; for SI (selectivity index) MCF7: IC50 of RPE1/IC50 of cancer cell line
Description: as §1, §2, §3, §4, §5

[4] = MTT cytotoxicity assay (CC50); format: cell-based; conditions: African green monkey, VERO-E6 cells
Description: The cytotoxic activity of the compounds was tested in VERO-E6 cells by using the 3-(4,5-dimethylthiazol-2-yl)-2,5-diphenyltetrazolium bromide (MTT) method with minor modifications. Briefly, the cells were seeded in 96 well-plates […] at a density of 3 x 10^5 cell/ml and incubated for 24 h at 37 °C in 5% CO2. After 24 h, cells were treated with various concentrated of the tested compounds in triplicates. 24 h later, the supernatant was discarded and cell monolayers were washed with sterile 1x phosphate buffer saline (PBS) 3 times and MTT solution (20 µl of 5 mg/ml) was added to each well and incubated at 37 °C for 4 h followed by medium aspiration. In each well, the formed formazan crystals were dissolved with 200 µl of acidified isopropanol (0.04 M HCl in absolute isopropanol = 0.073 ml HCl in 50 ml isopropanol). Eventually, the absorbance was measured at λmax 570 nm using the Anthos Zenyth 200rt plate reader (Anthos Labtec Instruments, Heerhugowaard, Netherlands). The cytotoxicity of various concentrations compared to the untreated cells was determined using nonlinear regression analysis by plotting log inhibitor versus normalized response.^12^-14

[5] = tested on: HCT116 (colon) cancer cell line; experiment: MTT antiproliferation, HCT116; format: cell-based, human; conditions: for IC50: Homo sapiens, HCT-116, 72 h, read-out: IC50 (µM) ± SEM HCT116; for SI (selectivity index) HCT116: IC50 of RPE1/IC50 of cancer cell line
Description: as §1, §2, §3, §4, §5

[6] = tested on: SARS-CoV-2 (hCoV-19/Egypt/NRC-03/2020); experiment: Vero-E6 cell viral infection model, anti-SARS-CoV-2 IC50 (CPE, crystal violet); format: cell-based; conditions: for IC50: Severe acute respiratory syndrome coronavirus 2, Vero C1008; for SI = CC50/IC50: Vero-E6, SARS-CoV-2
BChE = BChE (Homo sapiens, UniProt P06276); experiment: BChE inhibition (DTNB, butyrylthiocholine iodide)
BChE, sequence (P06276 29-602, species assumed): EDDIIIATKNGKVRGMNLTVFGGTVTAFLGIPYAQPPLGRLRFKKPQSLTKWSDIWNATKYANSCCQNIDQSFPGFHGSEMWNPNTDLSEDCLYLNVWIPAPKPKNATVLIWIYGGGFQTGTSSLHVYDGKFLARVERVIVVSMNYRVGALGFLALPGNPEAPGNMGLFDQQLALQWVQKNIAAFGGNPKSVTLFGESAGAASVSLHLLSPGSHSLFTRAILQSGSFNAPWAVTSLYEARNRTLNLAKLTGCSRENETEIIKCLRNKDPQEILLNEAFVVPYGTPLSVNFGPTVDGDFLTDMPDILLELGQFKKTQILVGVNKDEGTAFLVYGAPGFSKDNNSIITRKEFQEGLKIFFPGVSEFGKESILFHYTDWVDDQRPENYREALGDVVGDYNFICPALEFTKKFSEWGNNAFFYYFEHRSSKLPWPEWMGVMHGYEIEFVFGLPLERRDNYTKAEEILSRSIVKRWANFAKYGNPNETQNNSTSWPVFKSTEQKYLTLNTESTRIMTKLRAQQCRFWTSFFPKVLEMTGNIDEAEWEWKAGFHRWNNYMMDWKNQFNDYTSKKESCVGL

[7] = tested on: RPE1 (normal human immortalized retinal pigment epithelial cell line); experiment: MTT toxicity towards normal cells, RPE1; format: cell-based; conditions: RPE-1, read-out: IC50 (µM) ± SEM RPE1
Description: The safety of the synthesized agents against non-cancer/normal RPE1 (retinal pigment epithelium) cell line was assessed (Table 1, Supplementary Fig. S52). The SI (selectivity index) for the tested compounds against RPE1 cell line confirms the safety towards non-cancer cells. […] Compound 6d and 6h which are also of high anti-PaCa2 show remarkable SI values (SI = > 3.8, > 3.6, respectively).
The agents synthesized were also tested against RPE1 (normal human immortalized retinal pigment epithelial cell line) cell (in DMEM-F12 medium) to determine the toxicity/selectivity towards normal cells relative to the cancer cell lines utilized.
as §6

EGFR = molecular target: T1, EGFR (Homo sapiens, UniProt P00533); format: cell-based; conditions: western blot, MCF7, compound at its MTT IC50; for EGFR RQ (relative quantification): control RQ 3.4461
T1 construct: Western blot technique was considered for EGFR and VEGFR-2 properties determination; endogenous in cells; host or cells: MCF7 (breast cancer cell line)
T1 sequence (P00533 25-1210): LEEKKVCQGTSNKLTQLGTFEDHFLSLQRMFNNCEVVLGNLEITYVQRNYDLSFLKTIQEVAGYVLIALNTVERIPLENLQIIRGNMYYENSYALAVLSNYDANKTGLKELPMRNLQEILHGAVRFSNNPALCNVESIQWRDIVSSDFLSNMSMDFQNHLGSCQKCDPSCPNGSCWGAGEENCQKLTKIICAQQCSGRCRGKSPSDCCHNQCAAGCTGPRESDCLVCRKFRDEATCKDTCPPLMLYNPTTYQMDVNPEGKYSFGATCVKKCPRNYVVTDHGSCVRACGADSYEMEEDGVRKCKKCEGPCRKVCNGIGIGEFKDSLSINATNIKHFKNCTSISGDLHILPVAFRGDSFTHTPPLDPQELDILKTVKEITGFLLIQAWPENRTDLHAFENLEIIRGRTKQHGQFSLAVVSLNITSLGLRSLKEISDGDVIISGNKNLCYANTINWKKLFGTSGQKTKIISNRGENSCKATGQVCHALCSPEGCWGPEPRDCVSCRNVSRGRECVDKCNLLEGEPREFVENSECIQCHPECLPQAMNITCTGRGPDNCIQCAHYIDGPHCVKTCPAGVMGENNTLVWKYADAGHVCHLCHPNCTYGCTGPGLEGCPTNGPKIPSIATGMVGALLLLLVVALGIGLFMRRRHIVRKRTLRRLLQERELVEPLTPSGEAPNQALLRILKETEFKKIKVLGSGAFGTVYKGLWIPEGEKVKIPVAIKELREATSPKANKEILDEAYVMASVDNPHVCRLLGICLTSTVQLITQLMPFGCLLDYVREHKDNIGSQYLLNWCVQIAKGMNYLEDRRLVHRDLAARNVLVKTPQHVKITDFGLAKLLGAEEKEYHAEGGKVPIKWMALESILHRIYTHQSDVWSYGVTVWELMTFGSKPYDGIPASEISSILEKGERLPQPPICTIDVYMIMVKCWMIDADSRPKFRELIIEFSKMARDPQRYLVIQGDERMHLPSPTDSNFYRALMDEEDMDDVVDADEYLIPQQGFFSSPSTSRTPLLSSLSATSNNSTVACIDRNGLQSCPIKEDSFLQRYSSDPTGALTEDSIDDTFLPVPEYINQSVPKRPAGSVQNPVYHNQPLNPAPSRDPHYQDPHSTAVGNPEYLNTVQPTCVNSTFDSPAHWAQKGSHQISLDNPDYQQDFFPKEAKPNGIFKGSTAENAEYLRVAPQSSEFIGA
Excerpt: (§7) The western blot technique was applied utilizing the IC50 observed for each respective agent synthesized during MTT assay[85],[86]. Consideration of multi-targeted inhibitory properties investigation is based in the fact that cancer initiation and proliferation sometimes utilizes many receptors or signaling pathways.
(§8) Western blot technique was considered for EGFR and VEGFR-2 properties determination utilizing the IC50 observed of each respective agent synthesized during MTT assay against MCF7 (breast) cancer cell line. All the studies were conducted according to the manufacturer’s instruction.^10,^11

VEGFR-2 = molecular target: T2, VEGFR-2 (Homo sapiens, UniProt P35968); format: cell-based; conditions: western blot, MCF7, compound at its MTT IC50; for VEGFR-2 RQ (relative quantification): control RQ 3.2634
T2 construct: Western blot technique was considered for EGFR and VEGFR-2 properties determination; endogenous in cells; host or cells: MCF7 (breast cancer cell line)
T2 sequence (P35968 20-1356): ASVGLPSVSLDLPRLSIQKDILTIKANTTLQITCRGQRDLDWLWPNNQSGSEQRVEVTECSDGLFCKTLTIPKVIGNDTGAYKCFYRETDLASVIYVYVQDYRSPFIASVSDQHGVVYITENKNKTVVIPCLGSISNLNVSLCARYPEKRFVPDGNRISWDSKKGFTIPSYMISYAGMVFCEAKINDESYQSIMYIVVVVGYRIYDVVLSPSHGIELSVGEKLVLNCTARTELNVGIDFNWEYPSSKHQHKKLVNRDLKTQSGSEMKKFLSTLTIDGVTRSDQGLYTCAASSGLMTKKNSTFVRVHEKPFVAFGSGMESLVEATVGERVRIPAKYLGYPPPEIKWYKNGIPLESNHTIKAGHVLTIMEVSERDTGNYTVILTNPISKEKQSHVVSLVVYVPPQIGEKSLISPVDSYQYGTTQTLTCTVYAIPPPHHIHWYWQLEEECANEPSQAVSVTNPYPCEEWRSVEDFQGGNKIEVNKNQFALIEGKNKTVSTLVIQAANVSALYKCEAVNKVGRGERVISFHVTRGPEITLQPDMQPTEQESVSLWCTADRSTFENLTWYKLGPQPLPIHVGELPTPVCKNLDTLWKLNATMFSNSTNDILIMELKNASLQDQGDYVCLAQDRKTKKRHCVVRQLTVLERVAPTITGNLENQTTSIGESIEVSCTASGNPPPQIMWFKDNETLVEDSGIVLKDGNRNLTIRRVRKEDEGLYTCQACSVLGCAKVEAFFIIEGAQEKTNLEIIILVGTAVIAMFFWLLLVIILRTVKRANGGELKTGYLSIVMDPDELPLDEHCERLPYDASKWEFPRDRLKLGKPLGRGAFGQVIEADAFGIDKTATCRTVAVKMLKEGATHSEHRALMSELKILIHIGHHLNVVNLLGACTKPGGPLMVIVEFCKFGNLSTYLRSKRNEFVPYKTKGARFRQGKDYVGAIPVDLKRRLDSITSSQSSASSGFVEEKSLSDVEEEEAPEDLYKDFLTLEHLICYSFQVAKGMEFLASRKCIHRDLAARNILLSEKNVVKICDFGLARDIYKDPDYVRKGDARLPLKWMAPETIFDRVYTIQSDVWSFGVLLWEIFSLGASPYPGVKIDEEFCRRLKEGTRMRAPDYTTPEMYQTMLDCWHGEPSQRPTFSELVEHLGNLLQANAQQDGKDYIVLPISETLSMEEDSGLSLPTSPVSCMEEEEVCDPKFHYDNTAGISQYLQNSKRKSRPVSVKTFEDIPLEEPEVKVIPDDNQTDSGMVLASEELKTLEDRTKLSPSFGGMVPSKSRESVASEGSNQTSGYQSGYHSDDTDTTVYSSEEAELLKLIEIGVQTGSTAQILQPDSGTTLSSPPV
Excerpt: as §7, §8

[8] = A-431, 72 h, read-out: IC50 (µM) ± SEM A431
[9] = A-431, read-out: Observed log(IC50, μM) (A431) (converted)
[10] = Vero-E6, 72 h, reduction of virus-induced CPE, read-out: IC50 (µM) SARS-CoV-2
[11] = log of observed IC50 in μM, read-out: Observed log(IC50, μM) (SARS-CoV-2) (converted)

AChE, sequence (P22303 32-614): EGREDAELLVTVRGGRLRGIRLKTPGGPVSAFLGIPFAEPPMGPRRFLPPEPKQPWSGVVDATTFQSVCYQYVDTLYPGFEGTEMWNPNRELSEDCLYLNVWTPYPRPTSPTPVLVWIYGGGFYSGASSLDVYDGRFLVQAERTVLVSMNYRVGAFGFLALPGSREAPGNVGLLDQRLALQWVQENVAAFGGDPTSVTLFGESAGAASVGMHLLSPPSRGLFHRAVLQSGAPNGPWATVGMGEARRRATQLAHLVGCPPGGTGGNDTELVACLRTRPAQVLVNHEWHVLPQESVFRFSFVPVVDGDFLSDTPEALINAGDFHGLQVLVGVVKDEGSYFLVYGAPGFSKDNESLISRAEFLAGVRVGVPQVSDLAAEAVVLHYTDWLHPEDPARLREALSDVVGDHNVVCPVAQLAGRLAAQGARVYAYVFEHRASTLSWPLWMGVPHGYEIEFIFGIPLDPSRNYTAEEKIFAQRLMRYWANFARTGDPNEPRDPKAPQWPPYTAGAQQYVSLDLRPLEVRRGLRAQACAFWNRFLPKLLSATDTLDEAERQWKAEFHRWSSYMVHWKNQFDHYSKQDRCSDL

| SMILES | SI = IC50 (AChE)/IC50 (BChE) (AChE) | IC50 (AChE) [µM] | IC50 [1, 8] [µM] | IC50 [1, 9] [µM] | SI (selectivity index) A431 [1] | IC50 [2] [µM] | SI (selectivity index) PaCa-2 [2] | IC50 [3] [µM] | SI (selectivity index) MCF7 [3] | CC50 at 24 h [4] [µM] | IC50 [5] [µM] | SI (selectivity index) HCT116 [5] | IC50 [6, 10] [µM] | IC50 [6, 11] [µM] | SI = CC50/IC50 [6] | IC50 (BChE) [µM] | IC50 [7] [µM] | EGFR % Inhibition (EGFR) [%] | EGFR RQ (relative quantification) (EGFR) | VEGFR-2 % Inhibition (VEGFR-2) [%] | also measured |
| --- | --- | --- | --- | --- | --- | --- | --- | --- | --- | --- | --- | --- | --- | --- | --- | --- | --- | --- | --- | --- | --- |
| CCS(=O)(=O)N1C/C(=C\c2ccc(F)cc2)C(=O)C2(C1)C(c1ccc(F)cc1)CN(C)C21C(=O)Nc2ccc(Cl)cc21 (stereo not drawn) [Compound 6h, (E)-5-Chloro-1″-(ethylsulfonyl)-5″-(4-fluorobenzylidene)-4′-(4-fluorophenyl)-1′-methyldispiro[indoline-3,2′-pyrrolidine-3′,3″-piperidine]-2,4″-dione] | 0.8 | 6.3 ± 0.97 | 6.04 ± 0.26 | 6.04 | > 8.3 | 14 ± 0.73 | > 3.6 | 4.69 ± 0.44 | > 10.7 | 262 | 4.6 ± 0.18 | > 10.9 | 7.69 | 7.69 | 34.1 | 8.07 ± 1.47 | > 50 | 67.2 | 1.13 | 66.2 | VEGFR-2 RQ (relative quantification) (VEGFR-2): 1.104 |
| CN1CC(c2ccc(Cl)cc2)C2(CN(S(C)(=O)=O)C/C(=C\c3ccc(Cl)cc3)C2=O)C12C(=O)Nc1ccccc12 (stereo not drawn) [Compound 6i, (E)-5″-(4-Chlorobenzylidene)-4′-(4-chlorophenyl)-1′-methyl-1″-(methylsulfonyl)dispiro[indoline-3,2′-pyrrolidine-3′,3″-piperidine]-2,4″-dione] | 1.3 | 18.2 ± 1.48 | 4.4 ± 0.49 | 4.4 | 3.4 | 9.04 ± 0.62 | 1.6 | 5.01 ± 0.29 | 2.9 | 235 | 5.47 ± 0.32 | 2.7 | 113 | 113 | 2.1 | 13.6 ± 2.12 | 14.8 ± 1.57 | 68.7 | 1.077 | 64.2 | VEGFR-2 RQ (relative quantification) (VEGFR-2): 1.1684 |
| CN1CC(c2ccc(Cl)cc2)C2(CN(S(C)(=O)=O)C/C(=C\c3ccc(Cl)cc3)C2=O)C12C(=O)Nc1ccc(Cl)cc12 (stereo not drawn) [Compound 6j, (E)-5-Chloro-5″-(4-chlorobenzylidene)-4′-(4-chlorophenyl)-1′-methyl-1″-(methylsulfonyl)dispiro[indoline-3,2′-pyrrolidine-3′,3″-piperidine]-2,4″-dione] | 1.9 | 42.8 ± 4.61 | 4.08 ± 0.21 | 4.08 | 3.1 | 8.83 ± 0.51 | 1.4 | 4.51 ± 0.39 | 2.8 | 201 | 4.72 ± 0.25 | 2.6 | 27.1 | 27.1 | 7.4 | 22.3 ± 3.33 | 12.5 ± 0.86 | 63.3 | 1.2634 | 57.9 | VEGFR-2 RQ (relative quantification) (VEGFR-2): 1.3745 |
